PMC12078333, “Pharmacokinetic evaluation and bioavailability of KPT-335 (Verdinexor) in cats” (Frontiers in Veterinary Science, 2025)
Like-named read-outs stand apart in the source and are kept apart here.

Assay: Pharmacokinetics study of KPT-335 in cats (i.v. injection, p.o. capsules and tablets; UPLC-MS/MS, non-compartmental analysis)
Format: in vivo
Conditions: both sexes, plasma, cats; for AUC(0-t): read-out: AUClast; for AUC(0-inf): read-out: AUCINF_obs; for Cmax: read-out: Cmax
Protocol: In this study, a parallel trial design was employed, 42 adult domestic cats (21 males and 21 females), aged 1 to 2 years and weighing 2.5 ± 0.25 kg. Cats were grouped by random number, with half male and female in each group, and all cats were determined to be systemically healthy during an initial screening visit 1 week prior to the experiment. They were acclimatized to the laboratory environment for 7 days before the study commenced. During this period, they were kept in solitary cages with free access to water. Cats in the fasting group were deprived of food for 12 h prior to and 2 h following drug administration, while those in the feeding group were fed twice a day. Food and water sources were consistent throughout the trail. During and at the end of the experiment, we systematically assessed the adverse reactions by recording parameters such as body weight, behavior, and coat gloss in all test cats both before and after the trial. These observations were conducted to evaluate whether any adverse reactions occurred. All procedures were reviewed and approved by the Institutional Animal Care and Use Committee of China Agricultural University (11305-23-E-002).
The UPLC-MS/MS system utilized a UPLC 1290 (Agilent) paired with a Phenomenex Kinetex C18 column (50 mm × 2.1 mm, 2.6 μm) for separation at a flow rate of 0.3 mL/min. The chromatographic mobile phase comprised water (A) and acetonitrile (B), both containing 0.1% formic acid. The gradient elution program was as follows: from 0.5 to 2.5 min, 10 to 95% B; from 2.5 to 4.5 min, 95% B; from 4.5 to 4.6 min, 95 to 10% B; and from 4.6 to 6.0 min, 10% B. The injection volume was 2 μL.
For mass spectrometry, an Agilent 6,475-LC-TQ equipped with an electrospray ion source was used. Multiple Reaction Monitoring (MRM) was selected to quantify KPT-335 in the positive ion mode. The ion transitions monitored were m/z 443.1 → 334.0 and 443.1 → 110.1 for KPT-335, and m/z 444.1 → 334.0 for the internal standard (IS). The cone voltage and collision energy were optimized for KPT-335 and the IS individually, set at 160 V and 25 eV, respectively. The optimized parameters for the instrument included an ion source temperature of 350°C, solvent removal temperature of 320°C, capillary voltage of 3.0 kV, and a solvent gas flow rate of 300 L/h.
The method was developed based on prior research conducted in the laboratory ([16]) and validated in accordance with international guidelines ([17]). The calibration concentration range for KPT-335 spanned from 0.5 to 100 ng/mL, with a lower limit of quantification (LLOQ) set at 0.5 ng/mL. The squared correlation coefficient (R^2) values exceeded 0.999, indicating high linearity.
For sample preparation, 100 μL of plasma was mixed with 10 μL of internal standard (IS) and 900 μL of acetonitrile, followed by vortexing for 2 min. The mixture was then centrifuged at 13,400 × g at 4°C for 10 min. The supernatant was filtered through a 0.22 μm organic membrane, and the resulting sample was analyzed using UPLC-MS/MS.
Cats were divided into seven groups, with six cats in each group. In the intravenous (i.v.) group (Group 1), cats received an injection of KPT-335 at a dosage of 1 mg/kg body weight (BW), administered via a bolus through a venous infusion needle. For the oral (p.o.) administration, cats were given capsules in a fasting state at doses of 0.2 mg/kg BW (Group 2), 1 mg/kg BW (Group 3), and 2 mg/kg BW (Group 4). Additionally, tablets were administered at 1 mg/kg BW (fasting, Group 5), 1 mg/kg BW (Group 6), and 2 mg/kg BW (Group 7) in a feeding state, followed by 3 mL of water delivered with a syringe.
For the p.o. administration, blood samples of 1.5 mL were collected via the brachial cephalic vein prior to administration and at 0.167, 0.333, 0.5, 0.75, 1, 1.5, 2, 4, 6, 8, 12, 24, 32, and 48 h post-administration. […]

[1] = cat, po, 1 mg/kg, tablet p.o. 1 mg/kg BW after feeding, mean, read-out: Plasma concentration Mean
[2] = cat, po, 1 mg/kg, tablet p.o. 1 mg/kg BW after feeding, mean
[3] = cat, po, 2 mg/kg, capsule p.o. 2 mg/kg BW, mean, read-out: Plasma concentration Mean
[4] = cat, po, 2 mg/kg, capsule p.o. 2 mg/kg BW, mean
[5] = cat, po, 2 mg/kg, tablet p.o. 2 mg/kg BW after feeding, mean, read-out: Plasma concentration Mean
[6] = cat, po, 2 mg/kg, tablet p.o. 2 mg/kg BW after feeding, mean
[7] = cat, po, 2 mg/kg, tablet p.o. 2 mg/kg BW after feeding, individual cats 1-6, read-out: Plasma concentration
[8] = iv, 1 mg/kg, i.v., Injection, 1 mg/kg BW
[9] = po, 0.2 mg/kg, p.o., Capsule, Fasting, 0.2 mg/kg BW

Structure (SMILES): O=C(/C=C\n1cnc(-c2cc(C(F)(F)F)cc(C(F)(F)F)c2)n1)NNc1ccccn1 [KPT-335]
- concentration at 32 h (cat, po, 1 mg/kg, tablet p.o. 1 mg/kg BW after fasting, mean): 5.11 ng/mL
- concentration at 48 h (cat, po, 1 mg/kg, tablet p.o. 1 mg/kg BW after fasting, mean, read-out: Plasma concentration Mean): 2.26 ng/mL
- concentration at 0.167 h [1]: 13.8 ng/mL
- concentration at 0.33 h [2]: 79.1 ng/mL
- concentration at 0.5 h [2]: 148 ng/mL
- concentration at 0.75 h [2]: 257 ng/mL
- concentration at 1 h [1]: 334 ng/mL
- concentration at 1.5 h [1]: 321 ng/mL
- concentration at 2 h [1]: 304 ng/mL
- concentration at 4 h [1]: 211 ng/mL
- concentration at 6 h [2]: 146 ng/mL
- concentration at 8 h [2]: 107 ng/mL
- concentration at 12 h [2]: 52.1 ng/mL
- concentration at 24 h [2]: 7.74 ng/mL
- concentration at 32 h [2]: 3.37 ng/mL
- concentration at 48 h [1]: 1.25 ng/mL
- concentration at 0.167 h [3]: 0.68 ng/mL
- concentration at 0.33 h [4]: 8.76 ng/mL
- concentration at 0.5 h [4]: 52.5 ng/mL
- concentration at 0.75 h [4]: 152 ng/mL
- concentration at 1 h [3]: 206 ng/mL
- concentration at 1.5 h [3]: 272 ng/mL
- concentration at 2 h [3]: 269 ng/mL
- concentration at 4 h [3]: 187 ng/mL
- concentration at 6 h [4]: 111 ng/mL
- concentration at 8 h [4]: 74.1 ng/mL
- concentration at 12 h [4]: 40.1 ng/mL
- concentration at 24 h [4]: 9.56 ng/mL
- concentration at 32 h [4]: 4.07 ng/mL
- concentration at 48 h [3]: 1.28 ng/mL
- AUC(0-t) (cat, po, 2 mg/kg, p.o., Tablet, Feeding, 2 mg/kg BW): 3000 ng·h/mL
- concentration at 0.167 h [5]: 16.9 ng/mL
- concentration at 0.33 h [6]: 95.9 ng/mL
- concentration at 0.5 h [6]: 222 ng/mL
- concentration at 0.75 h [6]: 389 ng/mL
- concentration at 1 h [7]: 288 ng/mL
- concentration at 1 h [5]: 464 ng/mL
- concentration at 1.5 h [7]: 366 ng/mL
- concentration at 1.5 h [5]: 555 ng/mL
- concentration at 2 h [7]: 303 ng/mL
- concentration at 2 h [5]: 516 ng/mL
- concentration at 4 h [5]: 333 ng/mL
- concentration at 6 h [6]: 187 ng/mL
- concentration at 8 h [6]: 126 ng/mL
- concentration at 12 h [6]: 45 ng/mL
- concentration at 24 h [6]: 6.55 ng/mL
- concentration at 32 h [6]: 2.28 ng/mL
- Tmax (cat, po, all p.o. groups, read-out: Tmax after oral (p.o.) administration): 1 to 2.5 h
- bioavailability (cat, po, p.o. capsules 0.2–2 mg/kg BW, read-out: absolute bioavailability, capsule group range): 28.9 to 44.7%
- bioavailability (cat, po, p.o. tablets 1–2 mg/kg BW, read-out: absolute bioavailability, tablet group range): 47.3 to 75.9%
- MRT last (iv, 1 mg/kg, Injection, 1 mg/kg BW): 4.73 ± 1.1 h
- AUC(0-inf) [8]: 3200 ± 851 ng·h/mL
- AUC(0-t) [8]: 3170 ± 842 ng·h/mL
- Cmax [8]: 851 ± 285 ng/mL
- k el (iv, 1 mg/kg, i.v., Injection, 1 mg/kg BW, read-out: Lambda_z (converted)): 5e-05 s⁻¹
- MRT last (po, 0.2 mg/kg, Capsule, Fasting, 0.2 mg/kg BW): 8.66 ± 2.71 h
- AUC(0-inf) [9]: 314 ± 220 ng·h/mL
- AUC(0-t) [9]: 278 ± 158 ng·h/mL
- Cmax [9]: 27.6 ± 9.02 ng/mL
